Where “and” joins values, the source holds several entries; their conditions need not be identical. Equal entries are not always repeated. Toxic doses and inconclusive results are not listed. Rule for the calls: active = survival T/C of 150% or more; inactive = T/C below 125% in these data.
Tested on: P388 leukemia ip, CD2F1 mice, survival T/C
Test: NCI In Vivo Anticancer Drug Screen. Data for tumor model P388 Leukemia (intraperitoneal) in CD2F1 (CDF1) mice
Settings: endpoint: median survival time, higher = longer survival
How it was run: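 Mice carrying the transplanted tumor received test compound or vehicle. Survival was recorded in each group, and the value is the treated-group measurement divided by that of the vehicle-treated control group.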

[1] = dose: 25.0 mg/kg/injection, schedule: Q01DX009 (ip), vehicle: other
[2] = dose: 50.0 mg/kg/injection, schedule: Q01DX009 (ip), vehicle: other
[3] = dose: 100.0 mg/kg/injection, schedule: Q01DX009 (ip), vehicle: other
[4] = dose: 100.0 mg/kg/injection, schedule: Q04DX002 (ip), vehicle: saline with Tween-80
[5] = dose: 200.0 mg/kg/injection, schedule: Q04DX002 (ip), vehicle: saline with Tween-80
[6] = dose: 400.0 mg/kg/injection, schedule: Q04DX002 (ip), vehicle: saline with Tween-80
[7] = dose: 50.0 mg/kg/injection, schedule: Q01DX005 (ip), vehicle: saline with Tween-80
[8] = dose: 100.0 mg/kg/injection, schedule: Q01DX005 (ip), vehicle: saline with Tween-80
[9] = dose: 200.0 mg/kg/injection, schedule: Q01DX005 (ip), vehicle: saline with Tween-80
[10] = dose: 50.0 mg/kg/injection, schedule: Q01DX009 (ip), vehicle: saline with Tween-80
[11] = dose: 100.0 mg/kg/injection, schedule: Q01DX009 (ip), vehicle: saline with Tween-80
[12] = dose: 50.0 mg/kg/injection, schedule: Q01DX005 (ip), vehicle: Klucel (hydroxypropylcellulose) (HPC)
[13] = dose: 100.0 mg/kg/injection, schedule: Q01DX005 (ip), vehicle: Klucel (hydroxypropylcellulose) (HPC)
[14] = dose: 200.0 mg/kg/injection, schedule: Q01DX005 (ip), vehicle: Klucel (hydroxypropylcellulose) (HPC)
[15] = dose: 60.0 mg/kg/injection, schedule: Q01DX005 (ip), vehicle: Klucel (hydroxypropylcellulose) (HPC)
[16] = dose: 120.0 mg/kg/injection, schedule: Q01DX005 (ip), vehicle: Klucel (hydroxypropylcellulose) (HPC)
[17] = dose: 12.5 mg/kg/injection, schedule: Q01DX005 (ip), vehicle: saline with Tween-80
[18] = dose: 25.0 mg/kg/injection, schedule: Q01DX005 (ip), vehicle: saline with Tween-80
[19] = dose: 25.0 mg/kg/injection, schedule: Q01DX009 (ip), vehicle: saline with Tween-80

Measured: T/C

COc1cc(C=O)cc(Br)c1O
inactive: dose: 25.0 mg/kg/injection, schedule: Q01DX009 (ip), vehicle: Klucel (hydroxypropylcellulose) (HPC) 108 % of control | dose: 50.0 mg/kg/injection, schedule: Q01DX009 (ip), vehicle: Klucel (hydroxypropylcellulose) (HPC) 108 % of control | dose: 100.0 mg/kg/injection, schedule: Q01DX009 (ip), vehicle: Klucel (hydroxypropylcellulose) (HPC) 108 % of control | dose: 200.0 mg/kg/injection, schedule: Q01DX009 (ip), vehicle: Klucel (hydroxypropylcellulose) (HPC) 105 % of control

CC(=O)Oc1ccc(N=Cc2cc3c(cc2[N+](=O)[O-])OCO3)cc1
inactive: dose: 12.5 mg/kg/injection, schedule: Q01DX009 (ip), vehicle: other 113 % of control | [1] 117 % of control | [2] 109 % of control | [3] 93 % of control | dose: 200.0 mg/kg/injection, schedule: Q01DX009 (ip), vehicle: other 92 % of control | dose: 400.0 mg/kg/injection, schedule: Q01DX009 (ip), vehicle: other 96 % of control

CCCCOP(O)(=S)OCCCC.[Ho]
inactive: dose: 66.0 mg/kg/injection, schedule: Q01DX001 (ip), vehicle: saline with Tween-80 100 % of control | dose: 100.0 mg/kg/injection, schedule: Q01DX001 (ip), vehicle: saline with Tween-80 98 % of control | dose: 150.0 mg/kg/injection, schedule: Q01DX001 (ip), vehicle: saline with Tween-80 98 % of control | dose: 200.0 mg/kg/injection, schedule: Q01DX001 (ip), vehicle: saline with Tween-80 90 % of control | dose: 400.0 mg/kg/injection, schedule: Q01DX001 (ip), vehicle: saline with Tween-80 90 % of control

O=C(CC(=O)c1ccccc1)C(=O)CC(=O)c1ccccc1
inactive: [4] 103 % of control | [5] 99 % of control | [6] 99 % of control

CSc1ccc2ns[s+]c2c1
inactive: [7] 104 % of control | [8] 102 % of control | [9] 101 % of control

COc1ccc(CC(N)c2nn[nH]n2)cc1 (centres undefined)
inactive: [10] 96 % of control | [11] 98 % of control

COC(=O)C1=CN(C(C)=O)C=C(C(=O)OC)C1c1ccccc1
inactive: [7] 102 % of control | [8] 93 % of control | [9] 92 % of control

O=C(CBr)C1(Br)CCN(Cc2ccccc2)CC1
inactive: dose: 3.13 mg/kg/injection, schedule: Q01DX009 (ip), vehicle: Klucel (hydroxypropylcellulose) (HPC) 109 % of control | dose: 6.25 mg/kg/injection, schedule: Q01DX009 (ip), vehicle: Klucel (hydroxypropylcellulose) (HPC) 115 % of control | dose: 12.5 mg/kg/injection, schedule: Q01DX009 (ip), vehicle: Klucel (hydroxypropylcellulose) (HPC) 109 % of control

Nc1cc(O)c(O)c2c1C(=O)c1c(O)c(O)cc(N)c1C2=O
inactive: [12] 102 % of control | [13] 105 % of control | [14] 99 % of control

CCN(CC)Cc1c(C)[nH]c2ccc3c(c2c1=O)CCCC3
inactive: [15] 91 % of control | [16] 93 % of control

O=C1CCC(=O)c2c1c(O)c1c(O)ccc(O)c1c2O
inactive: dose: 6.25 mg/kg/injection, schedule: Q01DX005 (ip), vehicle: saline with Tween-80 96 % of control | [17] 87 % of control | [18] 94 % of control

CCC(=O)Nc1ccc(C(=O)C(C)Br)cc1 (centres undefined)
inactive: dose: 6.25 mg/kg/injection, schedule: Q01DX009 (ip), vehicle: saline with Tween-80 108 % of control | dose: 12.5 mg/kg/injection, schedule: Q01DX009 (ip), vehicle: saline with Tween-80 115 % of control | [19] 117 % of control

N#Cc1nccnc1Cl
inactive: [1] 95 % of control | dose: 25.0 mg/kg/injection, schedule: Q04DX003 (ip), vehicle: other 100 % of control | [2] 100 % of control | dose: 50.0 mg/kg/injection, schedule: Q04DX003 (ip), vehicle: other 100 % of control | [3] 100 % of control | dose: 100.0 mg/kg/injection, schedule: Q04DX003 (ip), vehicle: other 100 % of control

CC(C)CC(=O)CC(c1ccccc1)C(C(=O)/C=C/c1ccccc1)C(C)C (centres undefined)
inactive: [17] 94 % of control | [18] 94 % of control | [7] 87 % of control and 92 % of control

CCCNC(=O)NC1CC(=O)N(CCC)C1=O (centres undefined)
inactive: [7] 93 % of control | [8] 100 % of control | [9] 102 % of control

O=C(CO)C1CC2CCC1C2 (centres undefined)
inactive: [15] 101 % of control | [16] 101 % of control | dose: 240.0 mg/kg/injection, schedule: Q01DX005 (ip), vehicle: Klucel (hydroxypropylcellulose) (HPC) 99 % of control

CCN1CC2(C)CCC(O)C34C2C(OC)C(O)(C13)C1(O)CC(OC)C2CC4(O)C1C2OC(=O)c1ccccc1 (centres undefined)
inactive: dose: 1.0 mg/kg/injection, schedule: Q01DX005 (ip), vehicle: saline + alcohol 102 % of control | dose: 2.0 mg/kg/injection, schedule: Q01DX005 (ip), vehicle: saline + alcohol 106 % of control | dose: 4.0 mg/kg/injection, schedule: Q01DX005 (ip), vehicle: saline + alcohol 108 % of control | dose: 8.0 mg/kg/injection, schedule: Q01DX005 (ip), vehicle: saline + alcohol 100 % of control

COc1ccc(Sc2c(C(=O)O)cccc2C(=O)O)cc1
inactive: [4] 102 % of control | [5] 100 % of control | [6] 101 % of control

CCOC(Cn1nc(SC)nc1N)OCC
inactive: dose: 100.0 mg/kg/injection, schedule: Q04DX002 (ip), vehicle: water 108 % of control | dose: 200.0 mg/kg/injection, schedule: Q04DX002 (ip), vehicle: water 104 % of control | dose: 400.0 mg/kg/injection, schedule: Q04DX002 (ip), vehicle: water 109 % of control

O=C(O)c1ccc(NC(=S)NNC(=O)c2ccncc2)cc1
inactive: dose: 100.0 mg/kg/injection, schedule: Q04DX002 (ip), vehicle: Klucel (hydroxypropylcellulose) (HPC) 99 % of control | dose: 200.0 mg/kg/injection, schedule: Q04DX002 (ip), vehicle: Klucel (hydroxypropylcellulose) (HPC) 102 % of control | dose: 400.0 mg/kg/injection, schedule: Q04DX002 (ip), vehicle: Klucel (hydroxypropylcellulose) (HPC) 100 % of control

CC1=CC(=O)C2(OC3OC(C)C(O)C(O)C3O)C=COC(OC3OC(CO)C(O)C(O)C3O)C12 (centres undefined)
inactive: dose: 12.5 mg/kg/injection, schedule: Q01DX005 (ip), vehicle: Klucel (hydroxypropylcellulose) (HPC) 98 % of control | dose: 25.0 mg/kg/injection, schedule: Q01DX005 (ip), vehicle: Klucel (hydroxypropylcellulose) (HPC) 95 % of control | [12] 95 % of control | [13] 95 % of control | [14] 95 % of control

CC(=O)N1CCNC(=O)/C1=C1\CCOC1=O
inactive: [10] 99 % of control | [11] 101 % of control | dose: 200.0 mg/kg/injection, schedule: Q01DX009 (ip), vehicle: saline with Tween-80 110 % of control

NCCNCCN1C(=O)c2cccc3cccc(c23)C1=O
inactive: dose: 100.0 mg/kg/injection, schedule: Q01DX001 (ip), vehicle: saline 110 % of control | dose: 200.0 mg/kg/injection, schedule: Q01DX001 (ip), vehicle: saline 86 % of control

O=C(CC(=O)N1CCN(c2ccccc2)CC1)N1CCN(c2ccccc2)CC1
inactive: [19] 95 % of control | [10] 97 % of control | [11] 98 % of control | dose: 100.0 mg/kg/injection, schedule: Q01DX009 (ip), vehicle: saline 93 % of control

COc1ccc(C2COc3cc4occc4cc3C2=O)c(OC)c1OC (centres undefined)
inactive: dose: 11.25 mg/kg/injection, schedule: Q01DX005 (ip), vehicle: Klucel (hydroxypropylcellulose) (HPC) 99 % of control | dose: 22.5 mg/kg/injection, schedule: Q01DX005 (ip), vehicle: Klucel (hydroxypropylcellulose) (HPC) 97 % of control | dose: 45.0 mg/kg/injection, schedule: Q01DX005 (ip), vehicle: Klucel (hydroxypropylcellulose) (HPC) 95 % of control | dose: 90.0 mg/kg/injection, schedule: Q01DX005 (ip), vehicle: Klucel (hydroxypropylcellulose) (HPC) 97 % of control | dose: 180.0 mg/kg/injection, schedule: Q01DX005 (ip), vehicle: Klucel (hydroxypropylcellulose) (HPC) 99 % of control

O=S1CCS(=O)C1c1ccccc1 (centres undefined)
inactive: dose: 50.0 mg/kg/injection, schedule: Q01DX005 (ip), vehicle: other 99 % of control | dose: 100.0 mg/kg/injection, schedule: Q01DX005 (ip), vehicle: other 103 % of control

Reference: PubChem BioAssay AID330 (DTP/NCI, 2004)
